Reference: patent publication US5530126A, “Process for the preparation of substituted 6-(pyrazol-3yl)-1,4-benzoxazin-3-ones” (Monsanto Company, priority 1994, dated 1996)

Experiments:
Format in all cases: in vivo
[1] = tested on: Indian Mustard; assay: Pre-emergence herbicide test; conditions: Brassica juncea, read-out: % plant inhibition (Inmu); for inhibition at 1120 g/ha: 1.12 kg/ha; for inhibition at 11210 g/ha: 11.21 kg/ha
How it was run: (§1)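 Readout: % inhibition per species, observed ~10-14 d after seeding and treatment. Treatment: known amount of active in acetone or water onto seed bed, covered with untreated soil; greenhouse, watered from below.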

[2] = tested on: Seedling johnsongrass; assay: Pre-emergence herbicide test; conditions: Sorghum halepense, read-out: % plant inhibition (Sejg); for inhibition at 1120 g/ha: 1.12 kg/ha; for inhibition at 11210 g/ha: 11.21 kg/ha
How it was run: as §1

[3] = tested on: Barnyardgrass; assay: Pre-emergence herbicide test; conditions: Echinochloa crus-galli, read-out: % plant inhibition (Bygr); for inhibition at 1120 g/ha: 1.12 kg/ha; for inhibition at 11210 g/ha: 11.21 kg/ha
How it was run: as §1

[4] = tested on: Morningglory; assay: Pre-emergence herbicide test; conditions: Ipomoea, read-out: % plant inhibition (Mogl); for inhibition at 1120 g/ha: 1.12 kg/ha; for inhibition at 11210 g/ha: 11.21 kg/ha
How it was run: as §1

[5] = tested on: Yellow nutsedge; assay: Pre-emergence herbicide test; conditions: Cyperus, read-out: % plant inhibition (Yens); for inhibition at 1120 g/ha: 1.12 kg/ha; for inhibition at 11210 g/ha: 11.21 kg/ha
How it was run: as §1

[6] = tested on: Wild buckwheat; assay: Pre-emergence herbicide test; conditions: Fallopia convolvulus, read-out: % plant inhibition (Wibw); for inhibition at 1120 g/ha: 1.12 kg/ha; for inhibition at 11210 g/ha: 11.21 kg/ha
How it was run: as §1

[7] = tested on: Cocklebur; assay: Pre-emergence herbicide test; conditions: Xanthium strumarium, read-out: % plant inhibition (Cobu); for inhibition at 1120 g/ha: 1.12 kg/ha; for inhibition at 11210 g/ha: 11.21 kg/ha
How it was run: as §1

[8] = tested on: Velvetleaf; assay: Pre-emergence herbicide test; conditions: Abutilon theophrasti, read-out: % plant inhibition (Vele); for inhibition at 1120 g/ha: 1.12 kg/ha; for inhibition at 11210 g/ha: 11.21 kg/ha
How it was run: as §1

[9] = tested on: Downy Brome; assay: Pre-emergence herbicide test; conditions: Bromus tectorum, read-out: % plant inhibition (Dobr); for inhibition at 1120 g/ha: 1.12 kg/ha; for inhibition at 11210 g/ha: 11.21 kg/ha
How it was run: as §1

[10] = tested on: Annual bluegrass; assay: Pre-emergence herbicide test; conditions: read-out: % plant inhibition (Anbg); for inhibition at 1120 g/ha: 1.12 kg/ha; for inhibition at 11210 g/ha: 11.21 kg/ha
How it was run: as §1

[11] = tested on: Indian Mustard; assay: Post-emergence herbicide test; conditions: Brassica juncea, read-out: % plant inhibition (Inmu); for inhibition at 1120 g/ha: 1.12 kg/ha; for inhibition at 11210 g/ha: 11.21 kg/ha
How it was run: (§2)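 Foliar spray trial in greenhouse pans: two- to three-week-old plants treated at 200 gallons/acre by atomizer, spray containing about 0.4% emulsifier. Percent inhibition compared with untreated controls was recorded around day 11.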

[12] = tested on: Seedling johnsongrass; assay: Post-emergence herbicide test; conditions: Sorghum halepense, read-out: % plant inhibition (Sejg); for inhibition at 1120 g/ha: 1.12 kg/ha; for inhibition at 11210 g/ha: 11.21 kg/ha
How it was run: as §2

[13] = tested on: Barnyardgrass; assay: Post-emergence herbicide test; conditions: Echinochloa crus-galli, read-out: % plant inhibition (Bygr); for inhibition at 1120 g/ha: 1.12 kg/ha; for inhibition at 11210 g/ha: 11.21 kg/ha
How it was run: as §2

[14] = tested on: Morningglory; assay: Post-emergence herbicide test; conditions: Ipomoea, read-out: % plant inhibition (Mogl); for inhibition at 1120 g/ha: 1.12 kg/ha; for inhibition at 11210 g/ha: 11.21 kg/ha
How it was run: as §2

[15] = tested on: Yellow nutsedge; assay: Post-emergence herbicide test; conditions: Cyperus, read-out: % plant inhibition (Yens); for inhibition at 1120 g/ha: 1.12 kg/ha; for inhibition at 11210 g/ha: 11.21 kg/ha
How it was run: as §2

[16] = tested on: Wild buckwheat; assay: Post-emergence herbicide test; conditions: Fallopia convolvulus, read-out: % plant inhibition (Wibw); for inhibition at 1120 g/ha: 1.12 kg/ha; for inhibition at 11210 g/ha: 11.21 kg/ha
How it was run: as §2

[17] = tested on: Cocklebur; assay: Post-emergence herbicide test; conditions: Xanthium strumarium, read-out: % plant inhibition (Cobu); for inhibition at 1120 g/ha: 1.12 kg/ha; for inhibition at 11210 g/ha: 11.21 kg/ha
How it was run: as §2

[18] = tested on: Velvetleaf; assay: Post-emergence herbicide test; conditions: Abutilon theophrasti, read-out: % plant inhibition (Vele); for inhibition at 1120 g/ha: 1.12 kg/ha; for inhibition at 11210 g/ha: 11.21 kg/ha
How it was run: as §2

[19] = tested on: Downy Brome; assay: Post-emergence herbicide test; conditions: Bromus tectorum, read-out: % plant inhibition (Dobr); for inhibition at 1120 g/ha: 1.12 kg/ha; for inhibition at 11210 g/ha: 11.21 kg/ha
How it was run: as §2

[20] = tested on: Annual bluegrass; assay: Post-emergence herbicide test; conditions: read-out: % plant inhibition (Anbg); for inhibition at 1120 g/ha: 1.12 kg/ha; for inhibition at 11210 g/ha: 11.21 kg/ha
How it was run: as §2

SMILES	inhibition at 1120 g/ha [1] [%]	inhibition at 1120 g/ha [2] [%]	inhibition at 1120 g/ha [3] [%]	inhibition at 1120 g/ha [4] [%]	inhibition at 1120 g/ha [5] [%]	inhibition at 1120 g/ha [6] [%]	inhibition at 1120 g/ha [7] [%]	inhibition at 1120 g/ha [8] [%]	inhibition at 1120 g/ha [9] [%]	inhibition at 1120 g/ha [10] [%]	inhibition at 1120 g/ha [11] [%]	inhibition at 1120 g/ha [12] [%]	inhibition at 1120 g/ha [13] [%]	inhibition at 1120 g/ha [14] [%]	inhibition at 1120 g/ha [15] [%]	inhibition at 1120 g/ha [16] [%]	inhibition at 1120 g/ha [17] [%]	inhibition at 1120 g/ha [18] [%]	inhibition at 1120 g/ha [19] [%]	inhibition at 1120 g/ha [20] [%]	also measured
Cn1nc(-c2cc(CC#N)c(Cl)cc2F)c(Cl)c1C(F)(F)F [Compound 115]	100	70	80	80	0	90	20	100	70	40	60	40	80	60	20	100	60	100	20	40	–
Cn1nc(-c2cc(COCCF)c(Cl)cc2F)c(Cl)c1C(F)(F)F [Compound 116]	90	90	90	90	0	100	50	100	80	90	80	70	80	100	20	80	100	100	70	80	–
COCCOCc1cc(-c2nn(C)c(C(F)(F)F)c2Cl)c(F)cc1Cl [Compound 117]	100	70	100	90	0	100	70	100	90	100	90	100	100	100	20	100	90	100	100	90	–
CCOCc1cc(-c2nn(C)c(C(F)(F)F)c2Cl)c(F)cc1Cl [Compound 118]	100	90	90	100	0	100	80	90	100	100	30	30	30	60	30	100	80	90	20	30	–
CC(C)OC(=O)COCc1cc(-c2nn(C)c(C(F)(F)F)c2Cl)c(F)cc1Cl [Compound 119]	–	–	–	–	–	–	–	–	–	–	–	–	–	–	–	–	–	–	–	–	inhibition at 11210 g/ha [1]: 100%; inhibition at 11210 g/ha [2]: 80%; inhibition at 11210 g/ha [3]: 100%; inhibition at 11210 g/ha [4]: 100%; inhibition at 11210 g/ha [5]: 70%; inhibition at 11210 g/ha [6]: 100%; inhibition at 11210 g/ha [7]: 100%; inhibition at 11210 g/ha [8]: 100%; inhibition at 11210 g/ha [9]: 80%; inhibition at 11210 g/ha [10]: 10%; inhibition at 11210 g/ha [11]: 100%; inhibition at 11210 g/ha [12]: 100%; inhibition at 11210 g/ha [13]: 100%; inhibition at 11210 g/ha [14]: 100%; inhibition at 11210 g/ha [15]: 20%; inhibition at 11210 g/ha [16]: 100%; inhibition at 11210 g/ha [17]: 100%; inhibition at 11210 g/ha [18]: 100%; inhibition at 11210 g/ha [19]: 100%; inhibition at 11210 g/ha [20]: 100%
C#CCOCc1cc(-c2nn(C)c(C(F)(F)F)c2Cl)c(F)cc1Cl [Compound 120]	90	80	80	80	10	100	30	100	70	70	70	80	80	100	10	100	90	100	50	40	–
CC(=O)OCc1cc(-c2nn(C)c(C(F)(F)F)c2Cl)c(F)cc1Cl [Compound 121]	–	–	–	–	–	–	–	–	–	–	–	–	–	–	–	–	–	–	–	–	inhibition at 11210 g/ha [1]: 100%; inhibition at 11210 g/ha [2]: 80%; inhibition at 11210 g/ha [3]: 100%; inhibition at 11210 g/ha [4]: 100%; inhibition at 11210 g/ha [5]: 70%; inhibition at 11210 g/ha [6]: 100%; inhibition at 11210 g/ha [7]: 60%; inhibition at 11210 g/ha [8]: 100%; inhibition at 11210 g/ha [9]: 70%; inhibition at 11210 g/ha [10]: 100%; inhibition at 11210 g/ha [11]: 90%; inhibition at 11210 g/ha [12]: 90%; inhibition at 11210 g/ha [13]: 100%; inhibition at 11210 g/ha [14]: 100%; inhibition at 11210 g/ha [15]: 20%; inhibition at 11210 g/ha [16]: 100%; inhibition at 11210 g/ha [17]: 90%; inhibition at 11210 g/ha [18]: 100%; inhibition at 11210 g/ha [19]: 90%; inhibition at 11210 g/ha [20]: 40%
